Assay results reported in article PMC4965013, “Open Source Drug Discovery with the Malaria Box Compound Collection for Neglected Diseases and Beyond” (PLoS Pathogens, 2016).

Legend:
P. falciparum = assay: EC50 listed in S2 Table Metabolomics (used to set the concentration tested); type: cell-based; conditions: Plasmodium falciparum; EC50 used for Factor_XEC50 in metabolomics; read-out: EC50_nM
[1] = system: P. falciparum 3D7 trophozoites; assay: Metabolomic fingerprint profiling LC-MS; type: cell-based, Plasmodium falciparum; parameters: UDP-D-glucose / ADP-D-glucose: unit not given here; conditions: for Acetyllysine / N-acetyl-L-ornithine / N-carbamoyl-L-aspartate / NADPH / dAMP / dCMP / dTDP / dTMP / dTTP / dihydroorotate / orotate / DLH / DLS/SDL/SID / PD / PEE / PVNF / 3-phosphoglycerate / ADP-D-glucose / ATP / CDP / D-sedoheptulose-1/7-phosphate / FAD / GMP / NAD+ / NADP+ / Octoluse Bisphosphate / Pyroglutamic acid / UDP-D-glucose / UDP-D-glucuronate / UDP-N-acetyl-glucosamine / UDP / UMP / UTP / a-ketoglutarate / citrate/isocitrate / cytidine / dATP / dGMP/AMP / fumarate / glucose-1/6-phosphate / glycerate / guanine / guanosine / hypoxanthine / indole / inosine / nicotinate / ornithine / phosphoenolpyruvate / pyruvate / ribose-phosphate / sarcosine/alanine / sn-glycerol-3-phosphate / succinate/methylmalonic acid / uridine / xanthosine: S2 Table Metabolomics; for Acetyllysine: metabolite Acetyllysine; for N-acetyl-L-ornithine: metabolite N-acetyl-L-ornithine; for N-carbamoyl-L-aspartate: metabolite N-carbamoyl-L-aspartate; for NADPH: metabolite NADPH; for dAMP: metabolite dAMP; for dCMP: metabolite dCMP; for dTDP: metabolite dTDP; for dTMP: metabolite dTMP; for dTTP: metabolite dTTP; for dihydroorotate: metabolite dihydroorotate; for orotate: metabolite orotate; for DLH: peptide DLH; for DLS/SDL/SID: peptide DLS/SDL/SID; for PD: peptide PD; for PEE: peptide PEE; for PVNF: peptide PVNF; for 3-phosphoglycerate: metabolite 3-phosphoglycerate; for ADP-D-glucose: metabolite ADP-D-glucose; for ATP: metabolite ATP; for CDP: metabolite CDP; for CDP / D-sedoheptulose-1/7-phosphate / GMP / Octoluse Bisphosphate / UDP / UMP / UTP / citrate/isocitrate / dGMP/AMP / fumarate / glucose-1/6-phosphate / glycerate / guanine / guanosine / inosine / pyruvate / sarcosine/alanine / succinate/methylmalonic acid / uridine / xanthosine: change in metabolite level after compound treatment; for D-sedoheptulose-1/7-phosphate: metabolite D-sedoheptulose-1/7-phosphate; for FAD: metabolite FAD; for GMP: metabolite GMP; for NAD+: metabolite NAD+; for NADP+: metabolite NADP+; for Octoluse Bisphosphate: metabolite Octoluse Bisphosphate; for Pyroglutamic acid: metabolite Pyroglutamic acid; for UDP-D-glucose: metabolite UDP-D-glucose; for UDP-D-glucuronate: metabolite UDP-D-glucuronate; for UDP-N-acetyl-glucosamine: metabolite UDP-N-acetyl-glucosamine; for UDP: metabolite UDP; for UMP: metabolite UMP; for UTP: metabolite UTP; for a-ketoglutarate: metabolite a-ketoglutarate; for citrate/isocitrate: metabolite citrate/isocitrate; for cytidine: metabolite cytidine; for dATP: metabolite dATP; for dGMP/AMP: metabolite dGMP/AMP; for fumarate: metabolite fumarate; for glucose-1/6-phosphate: metabolite glucose-1/6-phosphate; for glycerate: metabolite glycerate; for guanine: metabolite guanine; for guanosine: metabolite guanosine; for hypoxanthine: metabolite hypoxanthine; for indole: metabolite indole; for inosine: metabolite inosine; for 2_3-Diphosphoglyceric acid / 4-phosphopantothenate / 6-phospho-D-gluconate / FMN / IMP / Pyrophosphate / Sedoheptoluse bisphosphate / cyclic-AMP / glutathione disulfide / lactate / myo-inositol: metabolite level change after treatment; for nicotinate: metabolite nicotinate; for ornithine: metabolite ornithine; for phosphoenolpyruvate: metabolite phosphoenolpyruvate; for pyruvate: metabolite pyruvate; for ribose-phosphate: metabolite ribose-phosphate; for sarcosine/alanine: metabolite sarcosine/alanine; for sn-glycerol-3-phosphate: metabolite sn-glycerol-3-phosphate; for succinate/methylmalonic acid: metabolite succinate/methylmalonic acid; for uridine: metabolite uridine; for xanthosine: metabolite xanthosine

## Fc1ccc2[nH]c3c(NCCCN4CCOCC4)ncnc3c2c1 [MMV019871]
P. falciparum
  EC50: 345 nM
[1]
  Acetyllysine: -0.8876
  N-acetyl-L-ornithine: -0.1209
  N-carbamoyl-L-aspartate: 0.08503
  NADPH: 0.6093
  dAMP: 0.6696
  dCMP: -0.1368
  dTDP: 0.799
  dTMP: 0.8196
  dTTP: 0.3182
  dihydroorotate: 0.6163
  orotate: 0.06699
  DLH: -1.437
  DLS/SDL/SID: -0.7695
  PD: -0.933
  PEE: -0.4641
  PVNF: -1.358
  3-phosphoglycerate: -0.4045
  ADP-D-glucose: -0.2501
  ATP: -0.2422
  CDP: 0.8712
  D-sedoheptulose-1/7-phosphate: 0.6203
  FAD: -0.1788
  GMP: 0.008366
  NAD+: -0.1288
  NADP+: -0.2271
  Octoluse Bisphosphate: -0.5075
  Pyroglutamic acid: 0.06535
  UDP-D-glucose: -0.1274
  UDP-D-glucuronate: -0.1958
  UDP-N-acetyl-glucosamine: -0.09954
  UDP: 0.8844
  UMP: -0.5999
  UTP: -0.2069
  a-ketoglutarate: -0.1645
  citrate/isocitrate: -0.2521
  cytidine: -0.343
  dATP: -0.2053
  dGMP/AMP: 0.4546
  fumarate: -0.6533
  glucose-1/6-phosphate: -0.1277
  glycerate: -0.2409
  guanine: 0.2236
  guanosine: 0.1132
  hypoxanthine: 0.02159
  indole: -0.3008
  inosine: 0.02443
  2_3-Diphosphoglyceric acid: -0.241
  4-phosphopantothenate: -0.03538
  6-phospho-D-gluconate: -0.1618
  FMN: 0.07605
  IMP: 0.1512
  Pyrophosphate: -0.1841
  Sedoheptoluse bisphosphate: -0.3231
  cyclic-AMP: -0.2059
  glutathione disulfide: -0.2521
  lactate: 0.01945
  myo-inositol: 0.08413
  nicotinate: 0.1601
  ornithine: 0.04638
  phosphoenolpyruvate: -0.3024
  pyruvate: 0.2194
  ribose-phosphate: -0.9686
  sarcosine/alanine: -0.2747
  sn-glycerol-3-phosphate: -0.2288
  succinate/methylmalonic acid: -0.1938
  uridine: 0.09395
  xanthosine: -0.4756

## COc1ccc(-c2cc3c(SCC(=O)Nc4cc(C(F)(F)F)ccc4Cl)nccn3n2)cc1 [MMV396679]
P. falciparum
  EC50: 89.9 nM
[1]
  Acetyllysine: -0.1115
  N-acetyl-L-ornithine: -0.02651
  N-carbamoyl-L-aspartate: 3.992
  NADPH: 0.255
  dAMP: 0.01076
  dCMP: -0.01731
  dTDP: -0.9721
  dTMP: -0.9985
  dTTP: -1.02
  dihydroorotate: 4.797
  orotate: 0.864
  DLH: -0.2125
  DLS/SDL/SID: -0.04913
  PD: -0.04215
  PEE: -0.3501
  PVNF: -0.2936
  3-phosphoglycerate: -0.0577
  ADP-D-glucose: -0.06603
  ATP: 0.1822
  CDP: -0.644
  D-sedoheptulose-1/7-phosphate: 0.2024
  FAD: 0.03763
  GMP: 0.3849
  NAD+: -0.01439
  NADP+: -0.06317
  Octoluse Bisphosphate: -0.02018
  Pyroglutamic acid: 0.2933
  UDP-D-glucose: -0.1121
  UDP-D-glucuronate: -0.02141
  UDP-N-acetyl-glucosamine: -0.3213
  UDP: -1.37
  UMP: -0.7971
  UTP: -1.261
  a-ketoglutarate: 0.1314
  citrate/isocitrate: 0.05797
  cytidine: 0.1643
  dATP: 0.3792
  dGMP/AMP: -0.06069
  fumarate: -0.2305
  glucose-1/6-phosphate: 0.5016
  glycerate: 0.4143
  guanine: 0.4991
  guanosine: 0.9003
  hypoxanthine: 0.3227
  indole: 0.2561
  inosine: 0.1928
  2_3-Diphosphoglyceric acid: 0.1312
  4-phosphopantothenate: -0.2367
  6-phospho-D-gluconate: 0.186
  FMN: -0.2039
  IMP: -0.06535
  Pyrophosphate: 0.04157
  Sedoheptoluse bisphosphate: -0.03524
  cyclic-AMP: -0.06553
  glutathione disulfide: 0.06998
  lactate: 0.2306
  myo-inositol: 0.2632
  nicotinate: 0.2615
  ornithine: 0.183
  phosphoenolpyruvate: -0.02867
  pyruvate: -0.158
  ribose-phosphate: -0.4444
  sarcosine/alanine: 0.1483
  sn-glycerol-3-phosphate: -0.1937
  succinate/methylmalonic acid: -0.8703
  uridine: -0.4231
  xanthosine: 0.3074
